From patent US7998972B2, “1H-imidazo[4,5-c]quinoline derivatives in the treatment of protein kinase dependent diseases” (Novartis AG, priority 2002, dated 2011)

Experiments:
c-Met = target: T1, c-Met (Homo sapiens, UniProt P08581); assay: Inhibition of c-Met kinase (33P-ATP filter assay); assay type: biochemical; details: GST-c-Met cytoplasmic domain, poly(EY) substrate; read-out: IC50 range class, inhibition of c-Met
T1 construct: c-Met cytoplasmic domain (amino acids 969 to C-terminus); made in house; host or cells: baculovirus / Sf9 cells
From the text: Compounds of the formula I, for example, are able to inhibit c-Met kinase as mentioned already in the introduction. Using the sequence disclosed by Chan et al. (see Chan, A M-L, King H W S, Tempest P R, Deakin E A, Cooper C S, Brookes P. Primary structure of the met protein tyrosine kinase domain. Oncogene 1987; 12:229-233), a construct with this sequence, after hooking to a GST tag, was cloned into baculovirus and expressed in Sf9 cells. After partial purification by affinity chromatography on GST agarose resulting in a >90% pure preparation (SDS-PAGE), the kinase activity of this construct is used for inhibition assays using the compounds of formula I. The quality of the purified kinase preparations is highly reproducible: 9 batches of c-Met gives an average specific activity of 32.3±5.7 nmol/mg·min.
For inhibition studies, the following experimental protocol is used:
In vitro protein kinase assays are performed in 96-well plates. The amount of enzyme used in kinase assays and the incubation time for the kinase reaction are adjusted so that maximally 25% (in routine experiments <10%) of the substrate ATP are consumed.
Test compounds of the formula I are first dissolved in DMSO at a concentration of 1-10 mM (stock solution) and then further diluted with water/3% DMSO as required so that the final DMSO concentration in the assay is 1%.
The assay components are mixed in the following order: • 10 μl 3×compound (in 3% DMSO) • 10 μl 3×assay mix (MgCl2/MnCl2/ATP/^33P-ATP/poly(EY)) • 10 μl 3×enzyme dilution
Assays are incubated for 15 min (in special cases up to 60 min) at ambient temperature, reactions terminated by addition of 10 μl 0.25 M EDTA pH 7, then 20 μl transferred to a Millipore Immobilon^P membrane (previously soaked for 5 min with methanol, rinsed with water, then soaked for 5 min with 0.5% H3PO4 and mounted on vacuum manifold) with disconnected vacuum source. After spotting all samples, vacuum is connected and each well rinsed with 200 μl 0.5% H3PO4. Membranes are removed and washed 4× on shaker with 0.5% H3PO4, once with methanol. Membranes are counted after drying at ambient temperature, mounting in Packard TopCount 96-well frame, and addition of 10 μl/well of the scintillator Microscint™ (Packard).
IC50 values are calculated by logarithmic regression analysis of the percentage inhibition of each compound at 4 concentrations (usually 3- or 10-fold dilution series starting at 10 μM). In each experiment, the actual inhibition by reference compound is used for normalization of IC50 values to the basis of an average value of the reference inhibitor: Normalized IC50=measured IC50·average ref. IC50/measured ref. IC50 Example: • Reference inhibitor in experiment 0.4 μM, average 0.3 μM • Test compound in experiment 1.0 μM, normalization: 1.0·0.3/0.4=0.75 μM
For example, staurosporine or a synthetic staurosporine derivative are used as reference compounds.

CDK1 = assay: Inhibition of CDK1 (p34cdc2/cyclin Bcdc13 kinase, histone H1 substrate); assay type: biochemical, starfish; details: read-out: IC50 range class, inhibition of CDK1 in vitro
Experimental: Starfish oocytes are induced into the M phase with 10 μM 1-methyl-adenine, frozen in liquid nitrogen and stored at −80° C. The ooctyes are homogenized and centrifuged, as described in D. Arlon et al., Cell 55, 371-378 (1988) and V. Rialet und L. Meijer, Anticancer Res. 11, 1581-1590 (1991), as required. For purification of the p34^cdc2/cyclin B^cdc13 kinase, the supernatant of the oocytes is introduced onto p9^CKShs Sepharose grains produced from recombinant human protein p9^CKShs, as described in L. Azzi et al., Eur. J. Biochem. 203, 353-360 (1992). After 30 minutes at 4° C. under constant rotation, the grains are washed thoroughly and the active p34^cdc2/cyclin B^cdc13 kinase is eluted with free protein p9^CKShs (3 mg/ml). The kinase eluted is tested as described in L. Meijer et al., EMBO J. 8, 2275-2282 (1989) and EMBO J. 10, 1545-1554 (1991), using histone H1 as the substrate. In this test, the compounds of the formula I and their pharmaceutically acceptable salts have an inhibiting concentration IC50 [μmol/l] of 0.01 to 10, usually of 0.05 to 1.

Kdr = target: T2, Kdr (Homo sapiens, UniProt P35968); assay: Inhibition of KDR protein tyrosine kinase in vitro; assay type: biochemical; details: GST-fused KDR kinase domain, polyGluTyr(4:1), 8 μM ATP; read-out: IC50 range class, inhibition of Kdr in vitro
T2 construct: The kinase domain of KDR is expressed as GST-fusion protein using the baculovirus system; made in house
Experimental: Inhibition of the enzyme activity of KDR protein tyrosine kinase can be determined as follows: The kinase domain of KDR is expressed as GST-fusion protein using the baculovirus system. The in vitro kinase assay is performed in 96-well plates using the recombinant GST-fused kinase domains expressed in baculovirus and purified over glutathione-Sepharose. ^33P-ATP (Amersham) is used as the phosphate donor, and the polyGluTyr(4:1) peptide (Sigma) is used as acceptor. The buffer is composed as follows: 29 mM Tris-HCl, pH 7.5; 10 mM MgCl2, 1 μM MnCl2, 8 μM ATP, 0.2 μCi ^33P-ATP, 8 μg/ml polyGluTyr. The reaction os carried out in a volume of 30 μl for 10 min at room temperature in the presence of either 1% DMSO or the test compound of formula I at the required concentration in 1% DMSO […]. The reaction is stopped by the addition of ethylenediaminetetraacetic acid to a final concentration of 60 mM. The assay mixture is then transferred onto a Immobilon-PVF membrane (Millipore), which is subsequently washed four times with 0.05% H3PO4 and once with ethanol. After drying, […] of Microscint Cocktail (Packard) is added and scintillation counting is performed (Hewlett-Packard Top Count). IC50 values are calculated by linear regression analysis of the percentage inhibition of each test compound in duplicate, at three concentrations (usually 0.01, 0.1 and 1 μM or 0.1, 1 and 10 μM).

Abl = target: T3, Abl (Homo sapiens, UniProt P00519); assay: Inhibition of c-Abl protein-tyrosine kinase (filter binding assay); assay type: biochemical; details: His-tagged c-Abl kinase domain, Poly-AEKY, 5 μM ATP; read-out: IC50 range class, inhibition of Abl in vitro
T3 construct: The His-tagged kinase domain of c-Abl is cloned and expressed in the baculovirus/Sf9 system; His; made in house; host or cells: baculovirus / Sf9 cells
T3 sequence (P00519 242-493 limits assumed): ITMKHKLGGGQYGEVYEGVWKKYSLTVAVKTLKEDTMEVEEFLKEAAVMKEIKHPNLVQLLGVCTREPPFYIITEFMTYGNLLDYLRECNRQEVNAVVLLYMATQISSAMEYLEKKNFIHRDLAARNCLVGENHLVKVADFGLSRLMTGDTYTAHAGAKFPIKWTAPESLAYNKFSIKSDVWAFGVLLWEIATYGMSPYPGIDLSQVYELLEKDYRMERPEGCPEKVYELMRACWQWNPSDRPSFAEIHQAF
Experimental: An in vitro enzyme assay is performed in 96-well plates as a filter binding assay as described by Geissler et al. in Cancer Res. 1992; 52:4492-4498, with the following modifications. The His-tagged kinase domain of c-Abl is cloned and expressed in the baculovirus/Sf9 system as described by Bhat et al. in J. Biol. Chem. 1997; 272:16170-16175. A protein of 37 kD (c-Abl kinase) is purified by a two-step procedure over a Cobalt metal chelate column followed by an anion exchange column with a yield of 1-2 mg/L of Sf9 cells (Bhat et al., reference cited). The purity of the c-Abl kinase is >90% as judged by SDS-PAGE after Coomassie blue staining. The assay contains (total volume of 30 μL): c-Abl kinase (50 ng), 20 mM Tris.HCl, pH 7.5, 10 mM MgCl2, 10 μM Na3VO4, 1 mM DTT and 0.06 μCi/assay [γ^33 P]-ATP (5 μM ATP) using 30 μg/mL poly-Ala,Glu,Lys,Tyr-6:2:5:1 (Poly-AEKY, Sigma P1152) in the presence of 1% DMSO. Reactions are terminated by adding 10 μL of 250 mM EDTA and 30 μL of the reaction mixture is transferred on to Immobilon-PVDF membrane (Millipore, Bedford, Mass., USA) previously soaked for 5 min with methanol, rinsed with water, then soaked for 5 min with 0.5% H3PO4 and mounted on vacuum manifold with disconnected vacuum source. After spotting all samples, vacuum is connected and each well rinsed with 200 μL 0.5% H3PO4. Membranes are removed and washed on a shaker with 0.5% H3PO4 (4 times) and once with ethanol. Membranes are counted after drying at ambient temperature, mounting in Packard TopCount 96-well frame, and addition of 10 μL/well of Microscint™ (Packard).

T1 sequence (P08581 969-1390 limits assumed): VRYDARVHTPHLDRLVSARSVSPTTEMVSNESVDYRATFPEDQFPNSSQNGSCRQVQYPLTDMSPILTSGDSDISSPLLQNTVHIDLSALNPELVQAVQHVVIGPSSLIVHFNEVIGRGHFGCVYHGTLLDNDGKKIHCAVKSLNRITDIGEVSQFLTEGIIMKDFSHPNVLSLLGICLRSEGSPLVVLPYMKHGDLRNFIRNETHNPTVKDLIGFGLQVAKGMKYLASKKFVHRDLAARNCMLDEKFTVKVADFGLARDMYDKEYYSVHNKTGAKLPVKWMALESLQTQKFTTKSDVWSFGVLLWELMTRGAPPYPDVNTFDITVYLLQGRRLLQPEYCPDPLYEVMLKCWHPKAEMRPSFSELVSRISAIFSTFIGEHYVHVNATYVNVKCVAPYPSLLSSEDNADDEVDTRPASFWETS
T2 sequence (P35968 834-1162 limits assumed): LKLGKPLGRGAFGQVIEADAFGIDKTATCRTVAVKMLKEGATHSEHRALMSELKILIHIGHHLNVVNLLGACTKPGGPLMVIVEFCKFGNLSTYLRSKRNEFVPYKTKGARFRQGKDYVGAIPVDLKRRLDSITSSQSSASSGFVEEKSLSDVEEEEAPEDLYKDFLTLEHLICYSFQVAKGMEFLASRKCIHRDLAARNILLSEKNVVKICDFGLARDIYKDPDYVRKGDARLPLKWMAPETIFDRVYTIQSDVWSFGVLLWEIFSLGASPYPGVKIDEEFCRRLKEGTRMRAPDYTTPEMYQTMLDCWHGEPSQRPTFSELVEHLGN

Compound | IC50 (c-Met) [nM] | IC50 (CDK1) [nM] | IC50 (Kdr) [nM] | IC50 (Abl) [nM]
Cn1c(=O)n(-c2ccccc2Cl)c2c3cc(Br)ccc3ncc21 [Example 104, 8-Bromo-1-(2-chloro-phenyl)-3-methyl-1,3-dihydro-imidazo[4,5-c]quinolin-2-one] | ≤ 500 | 1000 to 2000 |  | 
OCc1cccc(-n2cnc3cnc4ccc(-c5ccccc5)cc4c32)c1 [Example 62, [3-(8-Phenyl-imidazo[4,5-c]quinolin-1-yl)-phenyl]-methanol] |  |  | ≤ 500 | ≤ 500
CCn1c(=O)n(-c2ccccc2Cl)c2c3cc(Cl)ccc3ncc21 [Example 108, 8-Chloro-1-(2-chloro-phenyl)-3-ethyl-1,3-dihydro-imidazo[4,5-c]quinolin-2-one] | 500 to 1000 | ≤ 500 | ≤ 500 | 
CCc1ccc2ncc3ncn(-c4ccccc4F)c3c2c1 [Example 50, 8-Ethyl-1-(2-fluoro-phenyl)-1H-imidazo[4,5-c]quinoline] | ≤ 500 | ≤ 500 |  | 
Nc1cccc(-n2cnc3cnc4ccc(-c5ccccc5)cc4c32)c1 [Example 58, 3-(8-Phenyl-imidazo[4,5-c]quinolin-1-yl)-phenylamine] |  |  | ≤ 500 | ≤ 500
O=c1[nH]c2cnc3ccc(Br)cc3c2n1-c1ccccc1Cl [Example 93, 8-Bromo-1-(2-chloro-phenyl)-1,3-dihydro-imidazo[4,5-c]quinolin-2-one] | ≤ 500 |  | 500 to 1000 | 
COc1ccc2ncc3ncn(-c4ccccc4)c3c2c1 [Example 48, 8-Methoxy-1-phenyl-1H-imidazo[4,5-]quinoline] |  |  | 1000 to 2000 | 

Further lines, results first:

IC50 (c-Met) [nM] | IC50 (CDK1) [nM] | IC50 (Kdr) [nM] | IC50 (Abl) [nM] | Compound
≤ 500 | 1000 to 2000 | 1000 to 2000 |  | CCn1c(=O)n(-c2ccccc2Cl)c2c3cc(Br)ccc3ncc21 [Example 113, 8-Bromo-1-(2-chloro-phenyl)-3-ethyl-1,3-dihydro-imidazo[4,5-c]quinolin-2-one]
 | 500 to 1000 |  |  | O=c1n(CC2CC2)c2cnc3ccc(Cl)cc3c2n1-c1ccccc1Cl [Example 128, 8-Chloro-1-(2-chloro-phenyl)-3-(cyclopropyl-methyl)-1,3-dihydro-imidazo[4,5-c]quinolin-2-one]
 |  |  | ≤ 500 | COc1ccccc1-c1ccc2ncc3ncn(-c4ccccc4Cl)c3c2c1 [Example 142, 1-(2-Chloro-phenyl)-8-(2-methoxy-phenyl)-1H-imidazo[4,5-c]quinoline]
500 to 1000 | ≤ 500 | ≤ 500 |  | CC(C)n1c(=O)n(-c2ccccc2Cl)c2c3cc(Br)ccc3ncc21 [Example 114, 8-Bromo-1-(2-chloro-phenyl)-3-isopropyl-1,3-dihydro-imidazo[4,5-c]quinolin-2-one]
 |  | ≤ 500 | ≤ 500 | COc1cccc(-c2ccc3ncc4ncn(-c5ccccc5Cl)c4c3c2)c1 [Example 140, 1-(2-Chloro-phenyl)-8-(3-methoxy-phenyl)-1H-imidazo[4,5-c]quinoline]
